Data set [1] deals with T1, Ku complex (Homo sapiens, UniProt P12956+P13010).
T1 construct: in the presence of nuclear protein extracts from Hep2 cells according to standard protocol; endogenous in cells; host or cells: Hep2 cells (nuclear protein extract)
Kind of data set: Band-shift assay with Hep2 nuclear protein extracts. To be noted: 10 nM 32P radio-labelled Dbait, 0-320 ng/μL Hep2 nuclear proteins, 30° C., 10 minutes. Format: binding. The procedure:
As the first step to dissect the mechanism of action of Dbait molecules, a series of band-shift assays were carried out with different ^32P radio-labelled Dbait molecules in the presence of nuclear protein extracts from Hep2 cells according to standard protocol. Typically, 10 nM ^32P radio-labelled Dbait molecules were incubated in the presence of various concentrations of nuclear proteins (0, 10, 20, 40, 80, 160, and 320 ng/μL) at 30° C. for 10 minutes in TBE buffer. Then the samples were loaded on a 5% acrylamide native gel. The electrophoresis was run at 95V for 2 hours at 4° C. The gel was dried and scanned by phosphorimager (Molecular Dynamics).
For 32-bp Dbait molecules, the intensity of the retarded band 1 increases and then decreases as the concentration of protein increases, while the intensity of the retarded band 2 increases as a function of the concentration of nuclear protein extracts.
It is likely that band 1 has one Ku70/80 complex bound to the 16 to 32-bp Dbait, whereas the band 2 has two Ku70/80 complexes bound to the 32-bp Dbait molecules. Control experiments performed with purified Ku proteins confirmed this interpretation.

Data set [2] has as its system GMA32 cells. Kind of data set: FACS analysis of sub-G1 cells (cell death) in GMA32 cells. To be noted: GMA32, 4.5 μg Dbait with lipofectamine, no irradiation or mitotic inhibitor. Type of data set: cell-based, Chinese hamster. The procedure: (§1) The GMA32 Chinese hamster fibroblast cells permissive of DNA breaks were maintained in MEM medium (Gibco) supplemented with 1 mM sodium pyruvate, 2 mM glutamine, 1×MEM non essential amino acids, 1× penicillin/streptomycin and 10% horse serum. Typically, 2×10^5 to 4×10^5 cells were seeded in medium without antibiotics, in 5 cm diameter Petri dishes 24 hours before the transfection of different Dbait molecules (4.5 μg) with lipofectamine 2000 (LifeTechnologies) as transfection agent (in a 1:3 ratio), according to the manufacturer's instructions. At the end of the transfection the cells were either irradiated (4 Gy) or treated with mitotic inhibitors: nocodazole (200 nM), navelbine (100 nM) or taxol (200 nM).
(§2) About 16 hour later the drug was removed and the cells were allowed to recover. Cell irradiation was performed with γ-rays from a ^137Cs source. After a 24 hours recovery, the cells were collected and used either for FACS, western blot analyses or to determine the clonogenicity (survival) and the effect of each treatment.
The M1 phase represents the percentage of cells in sub-G1 stage indicative of cell death.
The experiments were performed with a FACS calibur flow cytometer (Becton Dickinson). Cells were collected, suspended in 1 ml of cold GM buffer (6.5 mM glucose, 137 mM NaCl, 5.4 mM KCl, 2 mM Na2HPO4, 1 mM KHPO4, 0.5 mM EDTA), and stored at 4° C. for at least 2 hours after addition of 3 ml of cold 100% ethanol.
At that stage, cells were eventually washed with 1×PBS, then stained for 30 minutes at room temperature in PI solution (50 μg/ml propidium iodide, 25 μg/ml RNase A in 1×PBS buffer). 10,000 events were analyzed with Cellquest software, and cell aggregates were gated out. The percentage of cells with a sub-G1 content of DNA was scored.

For data set [3], the system named is GMA32 cells. In words: Clonogenicity (clonal survival) assay in GMA32 cells with irradiation or mitotic inhibitors. Format: cell-based, Chinese hamster. The procedure: as §1, §2
The effect of radiosensitization and chemosensitization of Dbait molecules in GMA32 cells was evaluated by clonogenicity (clonal survival) assay. For the clonogenicity assay, serial dilutions were made after counting the cells to seed 5 cm Petri dishes with different amounts of cells. The number of cells range from 100-200 (control cells) to 3000 (transfected or/and treated cells). Ten days after, the cells (forming clone) were fixed with 4% paraformaldehyde (20 minutes), then colored with methylene blue (15 minutes), and the number of clone in each plate (in triplicates) was scored.
These drugs are known as potent inhibitors of either polymerization or depolymerization of microtubules. Dbait32 (SEQ ID NO: 1) and Dait32H (SEQ ID NO: 1) were able to enhance to cytotoxic activity of these mitotic inhibitors.

The test system of data set [4] is γ-H2AX foci in GMA32 cells. In words: Immunodetection of γ-H2AX DSB foci in GMA32 cells. Type of data set: cell-based, Chinese hamster. To be noted: GMA32, Dbait with lipofectamine, no irradiation. The procedure:
Under the same conditions, the immunodetection of DSB foci of γ-H2AX phosphorylated on serine 139 by γ-H2AX labeling (bright dots or patches in nuclei) was performed in the untreated GMA32 cells, the cells transfected alone, or transfected with different Dbait molecules by lipofectamine. The counterstaining of cell membranes and nuclei were achieved by FITC-DiOC6 and DAPI. Similar effects of Dbait molecules were observed (FIG. 3.2). […] This provides visual evidence that these Dbait molecules can be used for trapping proteins involved in DSB repair via NHEJ pathway.
For immunodetection, the cells were grown on coverslip in 5 cm diameter Petri dishes 24 hours before the transfection with different Dbait molecules. One day after the transfection, FITC-DiOC6 (Molecular probes) was added in the medium 5 minutes at 37° C. (to counterstain the membranes). After 3 washing cycles, the cells were fixated with 4% PFA for 20 minutes.
After additional washing, γ-H2AX phosphorylated on serine 139 (γ-H2AX) was detected with. rabbit anti-γ-H2AX antibody (4411-PC, Trevigen) diluted 1/100 in 1×PBS, 1% BSA. Cells were washed three times with 1×PBS, 0.5%, TritonX-100, then incubated for 1 hour at room temperature with goat anti-rabbit antibodies Alexa 594 (Molecular Probes) diluted 1/100 in 1×PBS, 1% BSA. Cells were visualized by epifluorescence microscopy.

The test system of data set [5] is p53 serine 15 phosphorylation in GMA32 cells. Kind of data set: Western blot of p53 serine 15 phosphorylation in GMA32 cells. Type of data set: cell-based, Chinese hamster. Conditions: GMA32, Dbait with lipofectamine, no irradiation or mitotic inhibitor. The protocol: Further experiment was carried out in order to look for evidence of DNA damage signaling. The protein p53 is a well known major protein in mediating DNA damage signaling and in coordinating appropriate responses (DNA repair, apoptosis, etc.) by changing its phosphorylation status. In particular, the phosphorylation of serine 15 residue is involved in the interaction with MDM2 protein which acts as a feed back control Thus, the phosphorylation status of the serine 15 of p53 was assessed by Western blot.
For Western blot analysis, cells were lysed in Laemmli buffer. Equal amounts of lysates were resolved in 12% polyacrylamide gels. Proteins were transferred to nitrocellulose membranes, which were blocked with 5% nonfat milk (1 hour) before overnight incubation with anti-p53Ser15 antibody (9284, Cell Signaling) diluted 500 folds in TBST buffer (10 mM Tris-HCl pH7.5, 150 mM NaCl, 0.1% Tween 20) containing 5% nonfat milk. Blots were then incubated with horseradish peroxidase-conjugated goat anti-rabbit IgG secondary antibodies (P0448, Dako) diluted 1/5000 in TBST. Protein-antibody complexes were detected by enhanced chemiluminescence (RPN2106 ECL, Amersham).
A general note: In western blotting, separated proteins are transferred to a membrane and probed.

Data set [6] has as its system tumor tissues of K-Ras^V12G×Apc^1638N transgenic mouse. Kind of data set: Fluorescence microscopy of digestive tumor tissue of a treated transgenic mouse. Format: in vivo. Conditions: oral, with 5FU+CPT11 for three days, sacrificed two hours after the last treatment. The protocol:
Tumor samples prepared from animals treated with Dbait molecules tagged by fluorescein (Dbait32H-FITC) (SEQ ID NO: 1) and 5FU+CPT11 were analysed using immunofluorescence staining methods. γ-H2AX labeled foci were costained with fluorescent Dbait molecules, in reminiscence of the in vitro finding (cf. example 3.3 and 4). […] Then the tumor tissues were sampled and frozen at −80° C. For the analysis, 5 μm histological samples were made from the frozen tumor tissues by cryostat. DNA repair foci were detected by immunofluorescence with polyclonal rabbit anti-γ-H2AX antibody (Trevigen) diluted 1/500 in PBS, then with goat anti-rabbit antibody tagged by cyanine 3 (Jackson) diluted 1/200 in PBS. The samples were also counterstained by DAPI Samples were visualized by epifluorescence microscopy. […] Similar pattern was found for γ-H2AX sites (FIG. 5.3, panel B, right). The co-localized Dbait32H-FITC (SEQ ID NO: 1) and γ-H2AX signals were almost observed.

Data set [7] has as its system γ-H2AX foci in Hela cells. Kind of data set: Immunodetection of DSB sites (γ-H2AX foci) in Hela cells after irradiation. Type of data set: cell-based, human. Conditions: 2 μg Dbait, two hours after 2 Gy irradiation. The protocol: Transfection and irradiation protocoles were similar to those described above. For immunodetection, the cells were grown on surface coverslip in 5 cm diameter Petri dishes, transfected with 2 μg Dbait32H-FITC (SEQ ID NO: 1) molecules labeled with FITC with Superfect (Qiagene) according to the manufacturer's instruction. Four hours after the beginning of the transfection, cells were irradiated (2 Gy), then rest for 2 hours in the medium at 37° C. After 3 washing cycles, the cells were fixated with 2% PFA for 10 minutes. After one additional washings, the presence of γ-H2AX was detected with rabbit anti-γ-H2AX antibody (4411-PC, Trevigen) diluted 1/100 in 1×PBS, 1% BSA. Cells were washed three times with 1×PBS, 0.5% TritonX-100, then incubated for 1 hour at room temperature with rhodamine-conjugated goat anti-rabbit antibodies diluted 1/100 in 1×PBS, 1% BSA. Cells were visualized by epifluorescence microscopy.
Left panel: fluorescence of Dbait32H-FITC (SEQ ID NO: 1) (bright dots and patches) and DBS foci detected by immunofluorescence of γ-H2AX antibody in nuclei; Right panel: the same image of nuclei with DSB foci detected by immunofluorescence of γ-H2AX antibody and DAPI counterstaining. The arrows at the lower left corner show the absence of Dbait32H-FITC (SEQ ID NO: 1) and γ-H2AX signal in nucleus. […]

“Also recorded” adds a separate entry of the source.

T1 sequence (P12956 whole entry): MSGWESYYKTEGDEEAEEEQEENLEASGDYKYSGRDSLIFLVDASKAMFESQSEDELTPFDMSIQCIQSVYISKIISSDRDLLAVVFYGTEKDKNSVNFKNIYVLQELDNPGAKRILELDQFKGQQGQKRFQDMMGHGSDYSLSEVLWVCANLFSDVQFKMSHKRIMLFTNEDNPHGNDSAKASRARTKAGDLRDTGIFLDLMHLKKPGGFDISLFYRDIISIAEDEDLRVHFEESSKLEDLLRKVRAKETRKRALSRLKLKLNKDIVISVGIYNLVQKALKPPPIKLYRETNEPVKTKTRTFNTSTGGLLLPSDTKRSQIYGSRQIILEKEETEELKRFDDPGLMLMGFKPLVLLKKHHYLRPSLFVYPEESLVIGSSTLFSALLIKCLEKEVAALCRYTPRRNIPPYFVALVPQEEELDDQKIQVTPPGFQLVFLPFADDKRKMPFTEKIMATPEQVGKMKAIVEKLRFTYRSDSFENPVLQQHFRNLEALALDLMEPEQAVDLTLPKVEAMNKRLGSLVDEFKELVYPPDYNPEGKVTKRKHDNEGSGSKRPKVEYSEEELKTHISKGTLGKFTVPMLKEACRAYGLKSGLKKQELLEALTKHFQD
T1 sequence (P13010 whole entry): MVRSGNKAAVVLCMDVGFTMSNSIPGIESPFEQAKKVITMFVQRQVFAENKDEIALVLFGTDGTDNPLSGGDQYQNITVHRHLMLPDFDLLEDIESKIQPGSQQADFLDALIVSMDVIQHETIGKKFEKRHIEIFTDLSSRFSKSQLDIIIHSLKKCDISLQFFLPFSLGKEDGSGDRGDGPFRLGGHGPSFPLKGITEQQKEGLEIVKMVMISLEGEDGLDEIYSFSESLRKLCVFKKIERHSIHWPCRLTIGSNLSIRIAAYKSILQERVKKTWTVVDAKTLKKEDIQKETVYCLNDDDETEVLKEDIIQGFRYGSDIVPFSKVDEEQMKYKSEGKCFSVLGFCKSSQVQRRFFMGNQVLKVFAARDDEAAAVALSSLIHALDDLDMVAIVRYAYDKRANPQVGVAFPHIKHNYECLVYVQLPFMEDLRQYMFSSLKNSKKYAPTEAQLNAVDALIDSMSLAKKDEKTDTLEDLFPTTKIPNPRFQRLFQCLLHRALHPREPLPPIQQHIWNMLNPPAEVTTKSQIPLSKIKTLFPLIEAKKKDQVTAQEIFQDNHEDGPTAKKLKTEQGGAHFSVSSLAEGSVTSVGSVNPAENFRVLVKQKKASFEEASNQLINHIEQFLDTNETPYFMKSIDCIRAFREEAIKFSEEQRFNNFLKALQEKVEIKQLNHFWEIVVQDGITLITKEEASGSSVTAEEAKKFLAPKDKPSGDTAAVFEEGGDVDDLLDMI

On to “Dbait32: 32-bp linear double-stranded Dbait molecule (SEQ ID NO: 1) (ACGCACGGGTGTTGGGTCGTTTGTTCGGATCT; DNA, backbone not given here; linear DNA duplex, phosphorothioates at blunt ends, exact count not readable, further chemistry not fully specified)”, for which, in data set [1], the “retarded bands in band-shift assay” value was “two retarded band”. Moreover, the “cell death (cells in sub-G1 stage)” value in data set [2] is “Significant cell death”. Besides, the “chemosensitization (clonal survival)” value in data set [3] (GMA32, 200 nM nocodazole, 100 nM navelbine (vinorelbine) or 200 nM taxol (paclitaxel)) is on record as “chemosensitization was also observed”. For the same substance, in data set [3] (GMA32, 4 Gy irradiation), the “radiosensitization (clonal survival)” value is “radiosensitization to 4 Gy irradiation was observed”. For the same substance, in data set [4], the “γ-H2AX DSB foci (cell response)” value is reported as “effectively trigger similar cell response as if DNA damages were occurred in nuclei”. The “phosphorylation of p53 serine 15” value in data set [5] is listed as “highly phosphorylated”.
Turning to “Dbait32H-FITC: Dbait32H labelled via a T tagged with fluorescein (DNA ACGCACGGGTGTTGGGTCGTTTGTTCGGATCT; DNA, backbone not given here; fluorescein on a T, hairpin, hexaethyleneglycol loop, phosphorothioate blunt end, further chemistry not fully specified)”, the “distribution in tumor tissues” value in data set [6] is recorded as “heterogeneously disseminated in tumor tissues; also recorded: preferential nucleus localization”. Further, the “persistence of DSB sites (γ-H2AX foci)” value in data set [7] is given as “DSB sites persisted”.

Values taken from patent publication US7476729B2, “Dbait and uses thereof” (Institut Curie, priority 2003, dated 2009).
